Data: patent US20230295234A1, “ANTIMICROBIAL PEPTIDOMIMETICS” (SPEXIS AG, priority 2020, published 2023)
Like-named read-outs stand apart in the source and are kept apart here. Bridge positions count the residues as written; N and C are the ends. Square brackets hold non-standard residues; d marks the D form. Peptide text beside a SMILES is read from it. Gly(N-2-aminoethyl) = NCCNCC(=O)O; Hyp = O=C(O)[C@@H]1C[C@@H](O)CN1; Pen = CC(C)(S)[C@H](N)C(=O)O; dDab = NCC[C@@H](N)C(=O)O; Dab = NCC[C@H](N)C(=O)O

What was measured:
[1] = tested on: Escherichia coli ATCC 25922; settings: ATCC 25922
Method in brief: (§1)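 Broth microdilution; cation-adjusted MHII; inoculum ~5×10^5 CFU/mL from 0.5 McFarland saline suspension; peptide two-fold serial dilutions; polysorbate 80 0.002% final; peptide stock 1 mg/mL in water.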

[2] = tested on: Escherichia coli MCR-1 Af 45
Method in brief: as §1

[3] = tested on: Klebsiella pneumoniae SSI3010; settings: SSI3010
Method in brief: as §1

[4] = tested on: human red blood cells (hRBC); experiment: Hemolysis of human red blood cells; assay type: cell-based; settings: red cells of human, 1 h
Method in brief: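 PBS-washed human red blood cells (20% v/v) were incubated with peptide at 200 μg/mL for 1 h at 37 °C with shaking. Supernatant OD was read at 540 nm after 8-fold dilution. Hemolysis is expressed as percent of the water control.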

[5] = Mueller-Hinton broth II, 18-20 hours at 35° C.

Compound | Escherichia coli ATCC 25922 MIC [1] | Escherichia coli MCR-1 Af 45 MIC [2, 5] | Klebsiella pneumoniae SSI3010 MIC [3] | Hemolysis at 0.2 g/L [4] | Escherichia coli MCR-1 Af 45 MIC ([2]; MCR-1 Af 45)
CC[C@H](C)[C@H](NC(=O)[C@@H]1C[C@@H](O)CN1C(=O)[C@@H](NC(=N)N)C(C)C)C(=O)N[C@H](C(=O)N[C@@H](Cc1ccc(O)cc1)C(=O)N[C@@H]1C(=O)N[C@@H](Cc2c[nH]cn2)C(=O)N[C@@H](CCCNC(=N)N)C(=O)N[C@@H](CCN)C(=O)N[C@@H]([C@@H](C)O)C(=O)N[C@H](CCN)C(=O)N[C@@H](CCCCN)C(=O)N[C@H](C(=O)N[C@@H](CCN)C(=O)N[C@@H](CCCNC(=N)N)C(=O)N[C@@H](Cc2ccc(O)cc2)C(=O)O)CSSC1(C)C)[C@@H](C)O [Example 194] (HELM PEPTIDE1{[CC(C)[C@H](NC(=N)N)C(=O)[*:2]].[Hyp].I.T.Y.[Pen].H.R.[Dab].T.[NCC[C@@H](N[*:1])C(=O)[*:2]].K.C.[Dab].R.Y}$PEPTIDE1,PEPTIDE1,6:R3-13:R3$$$V2.0) | 0.25 µg/mL | 0.125 µg/mL | 0.25 µg/mL | 0% | 
CC[C@H](C)[C@H](NC(=O)[C@@H]1C[C@@H](O)CN1C(=O)[C@@H](NC(=O)[C@@H]1C[C@@H](O)CN1C(=O)[C@H](CCCCN)NC(=O)[C@@H](N)CCCCN)C(C)C)C(=O)N[C@H](C(=O)N[C@@H](Cc1ccc(O)cc1)C(=O)N[C@H]1CSSC[C@@H](C(=O)N[C@@H](CCN)C(=O)N[C@@H](CCCNC(=N)N)C(=O)N[C@@H](Cc2ccc(O)cc2)C(=O)O)NC(=O)[C@H](CCCCN)NC(=O)[C@@H](CCN)NC(=O)[C@H]([C@@H](C)O)NC(=O)[C@H](CCN)NC(=O)[C@H](CCCNC(=N)N)NC(=O)[C@H](CC(N)=O)NC1=O)[C@@H](C)O [Example 121, Lys-Lys-Hyp-Val-Hyp-Ile-Thr-Tyr-Cys-Asn-Arg-Dab-Thr-^DDab-Lys-Cys-Dab-Arg-Tyr] (HELM PEPTIDE1{K.K.[Hyp].V.[Hyp].I.T.Y.C.N.R.[Dab].T.[NCC[C@@H](N[*:1])C(=O)[*:2]].K.C.[Dab].R.Y}$PEPTIDE1,PEPTIDE1,9:R3-16:R3$$$V2.0) | 0.03125 µg/mL |  | 0.125 µg/mL | 0% | 0.0625 µg/mL
CCCC[C@H](NC(=O)[C@H](CCCNC(=N)N)NC(=O)[C@H](CCC(N)=O)NC(=O)[C@@H]1CSSC[C@H](NC(=O)[C@H](Cc2ccc(O)cc2)NC(=O)[C@@H](NC(=O)[C@@H](NC(=O)[C@@H]2CCCN2C(=O)[C@@H](NC(=O)[C@@H]2CCCN2C(=O)[C@H](CCCCN)NC(=O)[C@@H](N)CCCCN)C(C)C)[C@@H](C)CC)[C@@H](C)CC)C(=O)N[C@@H](CC(N)=O)C(=O)N[C@@H](CCCNC(=N)N)C(=O)N[C@@H](CCCNC(=N)N)C(=O)N[C@@H]([C@@H](C)O)C(=O)N[C@H](CCN)C(=O)N[C@@H](CCN)C(=O)N1)C(=O)O [Example 69] (HELM PEPTIDE1{K.K.P.V.P.I.I.Y.C.N.R.R.T.[NCC[C@@H](N[*:1])C(=O)[*:2]].[Dab].C.Q.R.[Nle]}$PEPTIDE1,PEPTIDE1,9:R3-16:R3$$$V2.0) | 0.0625 µg/mL |  | 0.125 µg/mL | 0% | 0.125 µg/mL
CC[C@H](C)[C@H](NC(=O)[C@@H]1C[C@@H](O)CN1C(=O)[C@@H](N)C(C)C)C(=O)N[C@H](C(=O)N[C@@H](Cc1ccc(O)cc1)C(=O)N[C@@H]1C(=O)N[C@@H](CC(N)=O)C(=O)N[C@@H](CCCNC(=N)N)C(=O)N[C@@H](CCN)C(=O)N[C@@H]([C@@H](C)O)C(=O)N[C@H](CCCN)C(=O)N[C@@H](CCCCN)C(=O)N[C@H](C(=O)N[C@@H](CCN)C(=O)N[C@@H](CCCNC(=N)N)C(=O)N[C@@H](Cc2ccc(O)cc2)C(=O)O)CSSC1(C)C)[C@@H](C)O [Example 150] (HELM PEPTIDE1{V.[Hyp].I.T.Y.[Pen].N.R.[Dab].T.[NCCC[C@@H](N[*:1])C(=O)[*:2]].K.C.[Dab].R.Y}$PEPTIDE1,PEPTIDE1,6:R3-13:R3$$$V2.0) | 0.25 µg/mL | 0.125 µg/mL | 0.5 µg/mL | 0% | 
CC[C@H](C)[C@H](NC(=O)[C@@H]1C[C@@H](O)CN1C(=O)[C@@H](N)C(C)C)C(=O)N[C@H](C(=O)N[C@@H](Cc1ccc(O)cc1)C(=O)N[C@@H]1C(=O)N[C@@H](CC(N)=O)C(=O)N[C@@H](CCCNC(=N)N)C(=O)N[C@@H](CCN)C(=O)N[C@@H]([C@@H](C)O)C(=O)N[C@H](CCN)C(=O)N[C@@H](CCCCN)C(=O)N[C@H](C(=O)N[C@@H](CCN)C(=O)N[C@@H](CCCN)C(=O)N[C@@H](Cc2ccc(O)cc2)C(=O)O)CSSC1(C)C)[C@@H](C)O [Example 179] (HELM PEPTIDE1{V.[Hyp].I.T.Y.[Pen].N.R.[Dab].T.[NCC[C@@H](N[*:1])C(=O)[*:2]].K.C.[Dab].[Orn].Y}$PEPTIDE1,PEPTIDE1,6:R3-13:R3$$$V2.0) | 0.125 µg/mL | 0.0625 µg/mL | 0.25 µg/mL | 0% | 
CCCC[C@H](NC(=O)[C@H](CCCNC(=N)N)NC(=O)[C@H](CCN)NC(=O)[C@@H]1CSSC[C@H](NC(=O)[C@H](Cc2ccc(O)cc2)NC(=O)[C@H](Cc2c[nH]cn2)NC(=O)[C@@H](NC(=O)[C@@H]2CCCN2C(=O)[C@@H](NC(=O)[C@@H](CCCCN)NC(=O)[C@H](CCCCN)NC(=O)[C@@H](N)CCCCN)C(C)C)[C@@H](C)CC)C(=O)N[C@@H](CC(N)=O)C(=O)N[C@@H](CCCNC(=N)N)C(=O)N[C@@H](CCCNC(=N)N)C(=O)N[C@@H]([C@@H](C)O)C(=O)N[C@H](CCN)C(=O)N[C@@H](CCCCN)C(=O)N1)C(=O)O [Example 77] (HELM PEPTIDE1{K.K.[dK].V.P.I.H.Y.C.N.R.R.T.[NCC[C@@H](N[*:1])C(=O)[*:2]].K.C.[Dab].R.[Nle]}$PEPTIDE1,PEPTIDE1,9:R3-16:R3$$$V2.0) | 0.125 µg/mL |  | 0.25 µg/mL | 0% | 0.0625 µg/mL
CC[C@H](C)[C@H](NC(=O)CN(CCN)C(=O)[C@@H](NC(=O)[C@@H]1C[C@@H](O)CN1C(=O)[C@H](CCCCN)NC(=O)CNCCN)C(C)C)C(=O)N[C@H](C(=O)N[C@@H](Cc1ccc(O)cc1)C(=O)N[C@@H]1C(=O)N[C@@H](CC(N)=O)C(=O)N[C@@H](CCCNC(=N)N)C(=O)N[C@@H](CCN)C(=O)N[C@@H]([C@@H](C)O)C(=O)N[C@H](CCN)C(=O)N[C@@H](CCCCN)C(=O)N[C@H](C(=O)N[C@@H](Cc2ccc(O)cc2)C(=O)N[C@@H](CCCNC(=N)N)C(=O)N[C@@H](Cc2ccc(O)cc2)C(=O)O)CSSC1(C)C)[C@@H](C)O [Example 130, Ndab-Lys-Hyp-Val-Ndab-Ile-Thr-Tyr-Pen-Asn-Arg-Dab-Thr-^DDab-Lys-Cys-Tyr-Arg-Tyr] (H-[Gly(N-2-aminoethyl)]K[Hyp]V[Gly(N-2-aminoethyl)]ITY[Pen]NR[Dab]T[dDab]KCYRY-OH; disulfide 9-16) | 0.25 µg/mL |  | 0.25 µg/mL | 0% | 0.125 µg/mL
